Reference: US12448365B2, “Aryl aminopyrimidines as dual MerTK and TYRO3 inhibitors and methods thereof” (The University of North Carolina at Chapel Hill, priority 2019, dated 2025)
Read-outs that look alike come from different tables or passages of the source.

Legend:
Mer = Mer (Homo sapiens (Human), UniProt Q12866); experiment: Microfluidic Capillary Electrophoresis (MCE) kinase activity assay, Mer; assay type: biochemical
Tyro3 = Tyro3 (Homo sapiens (Human), UniProt Q06418); experiment: Microfluidic Capillary Electrophoresis (MCE) kinase activity assay, Tyro3; assay type: biochemical
Sequence of Tyro3 (Q06418 41-890): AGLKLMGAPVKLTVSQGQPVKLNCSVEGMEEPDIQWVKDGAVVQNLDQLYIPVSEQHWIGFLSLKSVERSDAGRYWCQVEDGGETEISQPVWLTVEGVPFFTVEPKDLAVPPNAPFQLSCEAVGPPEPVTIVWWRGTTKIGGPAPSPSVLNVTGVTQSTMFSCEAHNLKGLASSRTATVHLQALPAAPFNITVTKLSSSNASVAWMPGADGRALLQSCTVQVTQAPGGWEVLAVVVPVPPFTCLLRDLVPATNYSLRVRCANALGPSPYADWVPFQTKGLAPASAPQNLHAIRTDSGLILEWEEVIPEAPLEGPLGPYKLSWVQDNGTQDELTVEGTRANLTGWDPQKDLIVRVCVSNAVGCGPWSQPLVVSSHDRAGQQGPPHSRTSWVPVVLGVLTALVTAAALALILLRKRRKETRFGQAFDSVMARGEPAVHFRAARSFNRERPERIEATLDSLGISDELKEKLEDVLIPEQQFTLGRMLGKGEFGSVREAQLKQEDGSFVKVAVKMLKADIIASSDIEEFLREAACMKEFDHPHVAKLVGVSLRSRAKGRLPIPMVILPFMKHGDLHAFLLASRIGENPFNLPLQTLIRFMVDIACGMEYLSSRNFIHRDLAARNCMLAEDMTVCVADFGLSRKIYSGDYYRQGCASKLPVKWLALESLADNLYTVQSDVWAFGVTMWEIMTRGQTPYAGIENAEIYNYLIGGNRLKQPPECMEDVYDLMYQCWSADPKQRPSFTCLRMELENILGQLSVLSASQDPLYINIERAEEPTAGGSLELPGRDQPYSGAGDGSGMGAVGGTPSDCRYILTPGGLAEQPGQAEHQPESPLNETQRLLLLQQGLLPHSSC

[1] = MCE assay, Mer 2.0 nM, ATP 5.0 uM (at Km), 1.0 μM fluorescent substrate, 180 min incubation
[2] = MCE assay, Tyro 10 nM, ATP 21 uM (at Km), 1.0 μM fluorescent substrate, 180 min incubation

Sequence of Mer (Q12866 21-999): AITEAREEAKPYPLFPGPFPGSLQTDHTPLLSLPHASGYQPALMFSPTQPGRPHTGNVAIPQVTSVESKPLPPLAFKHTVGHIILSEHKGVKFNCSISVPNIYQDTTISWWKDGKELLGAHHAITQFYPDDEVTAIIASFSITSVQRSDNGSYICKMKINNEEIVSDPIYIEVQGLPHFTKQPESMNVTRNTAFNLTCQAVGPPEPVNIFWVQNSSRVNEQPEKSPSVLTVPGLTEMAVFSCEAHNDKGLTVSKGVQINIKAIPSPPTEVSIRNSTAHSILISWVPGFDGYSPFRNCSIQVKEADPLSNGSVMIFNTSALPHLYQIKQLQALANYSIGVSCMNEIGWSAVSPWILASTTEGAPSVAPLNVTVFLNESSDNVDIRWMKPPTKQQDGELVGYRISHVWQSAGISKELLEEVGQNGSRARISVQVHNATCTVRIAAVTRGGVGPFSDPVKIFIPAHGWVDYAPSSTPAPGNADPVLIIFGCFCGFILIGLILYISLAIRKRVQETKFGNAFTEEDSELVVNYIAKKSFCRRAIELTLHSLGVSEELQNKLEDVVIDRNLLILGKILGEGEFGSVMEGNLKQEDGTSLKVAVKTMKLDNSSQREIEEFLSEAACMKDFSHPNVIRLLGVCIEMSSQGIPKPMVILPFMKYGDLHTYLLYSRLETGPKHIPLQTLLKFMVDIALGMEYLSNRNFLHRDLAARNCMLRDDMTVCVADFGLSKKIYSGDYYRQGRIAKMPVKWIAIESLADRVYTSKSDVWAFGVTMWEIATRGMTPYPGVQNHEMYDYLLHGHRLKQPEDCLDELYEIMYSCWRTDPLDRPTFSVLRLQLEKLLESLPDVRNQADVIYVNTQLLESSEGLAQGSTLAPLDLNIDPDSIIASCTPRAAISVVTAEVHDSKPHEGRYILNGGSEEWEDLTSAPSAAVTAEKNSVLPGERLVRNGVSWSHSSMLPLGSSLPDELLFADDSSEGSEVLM

SMILES | IC50 (Mer) | IC50 (Tyro3) | IC50 (Mer; [1]) | IC50 (Tyro3; [2])
COc1cccc(Nc2ncc(C3CCN(C(=O)C4CCCC4)CC3)c(N[C@H]3CC[C@H](O)CC3)n2)c1 [Compound 1, cyclopentyl(4-(4-((trans-4-hydroxycyclohexyl)amino)-2-((3-methoxyphenyl)amino)pyrimidin-5-yl)piperidin-1-yl)methanone] | 0.1 to 1 µM | 0.1 to 1 µM | – | –
COc1cc(Nc2ncc(C3CCN(C(=O)OC(C)(C)C)CC3)c(N[C@H]3CC[C@H](O)CC3)n2)ccn1 [Compound 2] | 0.01 to 0.1 µM | 0.01 to 0.1 µM | – | –
COc1cccc(Nc2ncc(C3CCN(CC4CCCC4)CC3)c(N[C@H]3CC[C@H](O)CC3)n2)c1 [Compound 4, trans-4-((5-(1-(cyclopentylmethyl)piperidin-4-yl)-2-((3-methoxyphenyl)amino)pyrimidin-4-yl)amino)cyclohexan-1-ol] | – | 0.01 to 0.1 µM | < 0.01 µM | –
COc1cc(Nc2ncc(C3CCN(CC4CCCC4)CC3)c(N[C@H]3CC[C@H](O)CC3)n2)ccn1 [Compound 5] | – | 0.01 to 0.1 µM | < 0.01 µM | –
COc1cc(Nc2ncc(C3CCN(C)CC3)c(N[C@H]3CC[C@H](O)CC3)n2)ccn1 [Compound 6] | 0.01 to 0.1 µM | 0.01 to 0.1 µM | – | –
Cc1cc(Nc2ncc(C3CCNCC3)c(N[C@H]3CC[C@H](O)CC3)n2)ccn1 [Compound 8] | 0.01 to 0.1 µM | 0.01 to 0.1 µM | – | –
Cc1cc(Nc2ncc(C3CCNCC3)c(N[C@H]3CC[C@H](O)CC3)n2)cc(C)n1 [Compound 10] | 1 to 30 µM | 0.01 to 0.1 µM | – | –
Cc1cc(Nc2ncc(C3CCN(C4CCCC4)CC3)c(N[C@H]3CC[C@H](O)CC3)n2)ccn1 [Compound 11, trans-4-((5-(1-cyclopentylpiperidin-4-yl)-2-((2-methylpyridin-4-yl)amino)pyrimidin-4-yl)amino)cyclohexan-1-ol] | – | 0.01 to 0.1 µM | < 0.01 µM | –
O[C@H]1CC[C@H](Nc2nc(Nc3ccnc(Cl)c3)ncc2C2CCN(C3CCCC3)CC2)CC1 [Compound 12] | – | – | < 0.01 µM | < 0.01 µM
O[C@H]1CC[C@H](Nc2nc(Nc3ccnc(C(F)(F)F)c3)ncc2C2CCN(C3CCCC3)CC2)CC1 [Compound 13] | < 0.01 µM | 0.01 to 0.1 µM | – | –
NC(=O)c1cc(Nc2ncc(C3CCN(C4CCCC4)CC3)c(N[C@H]3CC[C@H](O)CC3)n2)ccn1 [Compound 14] | 0.01 to 0.1 µM | 0.01 to 0.1 µM | – | –
Cc1cc(Nc2ncc(C3CCN(CC4CCCC4)CC3)c(N[C@H]3CC[C@H](O)CC3)n2)ccn1 [Compound 15] | – | 0.01 to 0.1 µM | < 0.01 µM | –
CC(F)(F)c1cc(Nc2ncc(C3CCN(CC4CCCC4)CC3)c(N[C@H]3CC[C@H](O)CC3)n2)ccn1 [Compound 18] | – | – | < 0.01 µM | < 0.01 µM
COc1cc(Nc2ncc(C3CCNCC3)c(N[C@H]3CC[C@H](NC(C)=O)CC3)n2)ccn1 [Compound 21] | 0.01 to 0.1 µM | 0.01 to 0.1 µM | – | –
COc1cc(Nc2ncc(C3CCN(C4CCCC4)CC3)c(N[C@H]3CC[C@H](N(C)C)CC3)n2)ccn1 [Compound 24] | 0.01 to 0.1 µM | 0.1 to 1 µM | – | –
O[C@H]1CC[C@H](Nc2nc(Nc3ccnc(Cl)c3)ncc2C2CCN(CC3COC3)CC2)CC1 [Compound 28] | 0.01 to 0.1 µM | 0.01 to 0.1 µM | – | –
CN1CCC(CN2CCC(c3cnc(Nc4ccnc(Cl)c4)nc3N[C@H]3CC[C@H](O)CC3)CC2)CC1 [Compound 29] | 0.01 to 0.1 µM | 0.01 to 0.1 µM | – | –
O[C@H]1CC[C@H](Nc2nc(Nc3ccnc(Cl)c3)ncc2C2CCN(CC3CCC(F)(F)CC3)CC2)CC1 [Compound 30] | – | – | < 0.01 µM | < 0.01 µM
Cc1cc(CN2CCC(c3cnc(Nc4ccnc(Cl)c4)nc3N[C@H]3CC[C@H](O)CC3)CC2)no1 [Compound 31] | – | 0.01 to 0.1 µM | < 0.01 µM | –
O[C@H]1CC[C@H](Nc2nc(Nc3ccnc(Cl)c3)ncc2C2CCN(CC3CCC3)CC2)CC1 [Compound 33] | – | – | < 0.01 µM | < 0.01 µM
O[C@H]1CC[C@H](Nc2nc(Nc3ccnc(Cl)c3)ncc2C2CCN(CC3CCOCC3)CC2)CC1 [Compound 34] | – | 0.01 to 0.1 µM | < 0.01 µM | –
O[C@H]1CC[C@H](Nc2nc(Nc3ccnc(F)c3)ncc2C2CCNCC2)CC1 [Compound 37] | – | 0.01 to 0.1 µM | < 0.01 µM | –
O[C@H]1CC[C@H](Nc2nc(Nc3ccnc(Cl)c3)ncc2C2CCN(CC3CC3)CC2)CC1 [Compound 46] | – | – | < 0.01 µM | < 0.01 µM
O[C@H]1CC[C@H](Nc2nc(Nc3ccnc(Cl)c3)ncc2C2CCN(c3ccccc3)CC2)CC1 [Compound 47, trans-4-((2-((2-Chloropyridin-4-yl)amino)-5-(1-phenylpiperidin-4-yl)pyrimidin-4-yl)amino)cyclohexan-1-ol] | 0.01 to 0.1 µM | 0.01 to 0.1 µM | – | –
CC1(C)CC(N2CCC(c3cnc(Nc4ccnc(Cl)c4)nc3N[C@H]3CC[C@H](O)CC3)CC2)C1 [Compound 48] | – | – | < 0.01 µM | < 0.01 µM
N#Cc1cc(Nc2ncc(C3CCN(CC4CCCC4)CC3)c(N[C@H]3CC[C@H](O)CC3)n2)ccn1 [Compound 55] | – | 0.01 to 0.1 µM | < 0.01 µM | –
N#Cc1cc(Nc2ncc(C3CCN(CC4CCC(F)(F)CC4)CC3)c(N[C@H]3CC[C@H](O)CC3)n2)ccn1 [Compound 56] | – | 0.01 to 0.1 µM | < 0.01 µM | –

Results, then the compound that gave them:

IC50 (Mer) | IC50 (Tyro3) | IC50 (Mer; [1]) | IC50 (Tyro3; [2]) | SMILES
0.01 to 0.1 µM | 0.01 to 0.1 µM | – | – | O[C@H]1CC[C@H](Nc2nc(Nc3ccnc(Cl)c3)ncc2C2CCNCC2)CC1 [Compound 9]
– | – | < 0.01 µM | < 0.01 µM | O[C@H]1CC[C@H](Nc2nc(Nc3ccnc(Cl)c3)ncc2C2CCN(CC3CCCC3)CC2)CC1 [Compound 16]
0.01 to 0.1 µM | 0.01 to 0.1 µM | – | – | O[C@H]1CC[C@H](Nc2nc(Nc3ccnc(C(F)(F)F)c3)ncc2C2CCN(CC3CCCC3)CC2)CC1 [Compound 17]
0.1 to 1 µM | 0.01 to 0.1 µM | – | – | Cc1cc(Nc2ncc(C3CCN(CC4CCCC4)CC3)c(N[C@H]3CC[C@H](O)CC3)n2)cc(C)n1 [Compound 19]
– | 0.01 to 0.1 µM | < 0.01 µM | – | NC(=O)c1cc(Nc2ncc(C3CCN(CC4CCCC4)CC3)c(N[C@H]3CC[C@H](O)CC3)n2)ccn1 [Compound 20]
0.1 to 1 µM | 1 to 30 µM | – | – | COc1cc(Nc2ncc(C3CCN(C4CCCC4)CC3)c(N[C@H]3CC[C@H](NC(C)=O)CC3)n2)ccn1 [Compound 22]
– | 0.01 to 0.1 µM | < 0.01 µM | – | COc1cc(Nc2ncc(C3CCN(C4CCCC4)CC3)c(N[C@H]3CC[C@H](N)CC3)n2)ccn1 [Compound 23]
– | 0.01 to 0.1 µM | < 0.01 µM | – | COc1cc(Nc2ncc(C3CCN(C4CCCC4)CC3)c(N[C@H]3CC[C@H](O)CC3)n2)ccn1 [Compound 25]
0.01 to 0.1 µM | 0.01 to 0.1 µM | – | – | COc1cc(Nc2ncc(C3CCN(C(=O)C4CCCC4)CC3)c(N[C@H]3CC[C@H](O)CC3)n2)ccn1 [Compound 26, Cyclopentyl(4-(4-((trans-4-hydroxycyclohexyl)amino)-2-((2-methoxypyridin-4-yl)amino)pyrimidin-5-yl)piperidin-1-yl)methanone]
– | 0.01 to 0.1 µM | < 0.01 µM | – | O[C@H]1CC[C@H](Nc2nc(Nc3ccnc(Cl)c3)ncc2C2CCN(Cc3ccccc3)CC2)CC1 [Compound 32]
0.01 to 0.1 µM | 0.01 to 0.1 µM | – | – | O[C@H]1CC[C@H](Nc2nc(Nc3ccnc(C4CC4)c3)ncc2C2CCNCC2)CC1 [Compound 41]
0.1 to 1 µM | 1 to 30 µM | – | – | O[C@H]1CC[C@H](Nc2nc(Nc3ccnc(N4CCCC4)c3)ncc2C2CCNCC2)CC1 [Compound 43]
0.01 to 0.1 µM | 0.1 to 1 µM | – | – | CN1CCN(c2cc(Nc3ncc(C4CCNCC4)c(N[C@H]4CC[C@H](O)CC4)n3)ccn2)CC1 [Compound 44]
1 to 30 µM | 1 to 30 µM | – | – | O[C@H]1CC[C@H](Nc2nc(Nc3ccnc(N4CCCCC4)c3)ncc2C2CCNCC2)CC1 [Compound 45]
– | – | < 0.01 µM | < 0.01 µM | O[C@H]1CC[C@H](Nc2nc(Nc3ccnc(Cl)c3)ncc2C2CCN(C3CC(C4CC4)C3)CC2)CC1 (stereo partly drawn) [Compound 49]
